Reference: ChEMBL document CHEMBL4382269, “Discovery of Potent, Efficient, and Selective Inhibitors of Phosphoinositide 3-Kinase δ through a Deconstruction and Regrowth Approach” (J Med Chem, 2018)

Tests used:
[1] = target: Phosphatidylinositol 4,5-bisphosphate 3-kinase catalytic subunit gamma isoform (Homo sapiens, UniProt P48736); assay: Inhibition of PI3Kgamma (unknown origin) using PIP2 as substrate preincubated for 15 mins followed by substrate addition measured after 60 mins by HTRF method
Phosphatidylinositol 4,5-bisphosphate 3-kinase catalytic subunit gamma isoform, sequence (P48736 whole entry, canonical isoform): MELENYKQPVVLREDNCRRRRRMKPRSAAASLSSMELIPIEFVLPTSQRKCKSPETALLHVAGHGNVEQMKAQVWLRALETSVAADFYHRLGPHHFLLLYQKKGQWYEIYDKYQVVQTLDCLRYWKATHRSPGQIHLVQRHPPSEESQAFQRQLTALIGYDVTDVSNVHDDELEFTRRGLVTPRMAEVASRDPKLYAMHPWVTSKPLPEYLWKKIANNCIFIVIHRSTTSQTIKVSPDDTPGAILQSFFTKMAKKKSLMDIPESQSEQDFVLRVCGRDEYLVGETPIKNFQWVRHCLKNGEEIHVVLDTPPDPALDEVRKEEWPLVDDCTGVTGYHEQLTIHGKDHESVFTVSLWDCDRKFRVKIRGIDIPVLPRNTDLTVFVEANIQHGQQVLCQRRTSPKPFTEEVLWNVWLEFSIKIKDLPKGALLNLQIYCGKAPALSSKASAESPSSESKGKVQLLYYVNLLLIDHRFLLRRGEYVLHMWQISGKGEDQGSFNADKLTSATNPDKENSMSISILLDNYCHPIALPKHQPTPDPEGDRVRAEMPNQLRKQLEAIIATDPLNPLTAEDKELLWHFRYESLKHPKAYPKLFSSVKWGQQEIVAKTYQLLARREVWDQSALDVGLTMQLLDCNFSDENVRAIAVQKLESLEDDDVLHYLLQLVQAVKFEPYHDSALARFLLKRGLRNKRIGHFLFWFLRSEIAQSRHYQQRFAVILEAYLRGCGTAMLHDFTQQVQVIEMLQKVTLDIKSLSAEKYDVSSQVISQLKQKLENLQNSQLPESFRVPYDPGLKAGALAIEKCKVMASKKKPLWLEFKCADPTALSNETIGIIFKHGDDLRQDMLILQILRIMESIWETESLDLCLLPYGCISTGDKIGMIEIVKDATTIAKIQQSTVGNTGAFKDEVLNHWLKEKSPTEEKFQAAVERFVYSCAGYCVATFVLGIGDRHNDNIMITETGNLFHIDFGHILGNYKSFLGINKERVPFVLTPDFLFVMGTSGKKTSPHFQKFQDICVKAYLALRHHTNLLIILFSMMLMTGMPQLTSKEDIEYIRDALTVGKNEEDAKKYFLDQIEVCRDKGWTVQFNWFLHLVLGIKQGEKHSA

[2] = target: Phosphatidylinositol 4,5-bisphosphate 3-kinase catalytic subunit alpha isoform (Homo sapiens, UniProt P42336); assay: Inhibition of PI3Kalpha (unknown origin) using PIP2 as substrate preincubated for 15 mins followed by substrate addition measured after 60 mins by HTRF method
Phosphatidylinositol 4,5-bisphosphate 3-kinase catalytic subunit alpha isoform, sequence (P42336 whole entry, canonical isoform): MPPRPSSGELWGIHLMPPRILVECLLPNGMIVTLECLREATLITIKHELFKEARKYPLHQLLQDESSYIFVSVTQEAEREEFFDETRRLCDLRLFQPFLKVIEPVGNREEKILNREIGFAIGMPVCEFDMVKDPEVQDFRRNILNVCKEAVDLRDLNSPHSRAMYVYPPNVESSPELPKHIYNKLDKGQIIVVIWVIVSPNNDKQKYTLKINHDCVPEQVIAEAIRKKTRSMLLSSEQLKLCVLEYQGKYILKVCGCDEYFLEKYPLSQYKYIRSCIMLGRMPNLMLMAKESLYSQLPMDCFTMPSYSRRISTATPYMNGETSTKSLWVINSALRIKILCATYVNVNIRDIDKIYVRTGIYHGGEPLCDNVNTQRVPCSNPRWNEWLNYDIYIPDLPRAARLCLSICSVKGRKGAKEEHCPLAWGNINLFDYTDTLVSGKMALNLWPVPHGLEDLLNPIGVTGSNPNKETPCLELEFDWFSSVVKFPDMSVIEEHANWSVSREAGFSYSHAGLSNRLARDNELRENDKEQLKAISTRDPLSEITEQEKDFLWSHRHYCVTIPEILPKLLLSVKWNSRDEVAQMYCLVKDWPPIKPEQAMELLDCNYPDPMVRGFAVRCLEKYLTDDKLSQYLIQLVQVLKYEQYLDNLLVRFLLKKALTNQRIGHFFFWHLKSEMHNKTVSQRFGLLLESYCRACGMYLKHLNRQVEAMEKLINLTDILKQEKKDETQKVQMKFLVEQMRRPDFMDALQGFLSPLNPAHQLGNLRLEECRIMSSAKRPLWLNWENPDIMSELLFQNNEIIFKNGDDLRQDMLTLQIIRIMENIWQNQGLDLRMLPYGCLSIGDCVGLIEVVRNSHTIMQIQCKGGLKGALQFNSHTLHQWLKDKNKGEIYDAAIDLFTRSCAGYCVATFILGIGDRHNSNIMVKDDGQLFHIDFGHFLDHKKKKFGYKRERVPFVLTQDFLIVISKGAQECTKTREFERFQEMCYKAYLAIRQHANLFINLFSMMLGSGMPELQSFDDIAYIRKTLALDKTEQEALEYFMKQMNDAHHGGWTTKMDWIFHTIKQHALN

[3] = target: Phosphatidylinositol 4,5-bisphosphate 3-kinase catalytic subunit beta isoform (Homo sapiens, UniProt P42338); assay: Inhibition of PI3Kbeta (unknown origin) using PIP2 as substrate preincubated for 15 mins followed by substrate addition measured after 60 mins by HTRF method
Phosphatidylinositol 4,5-bisphosphate 3-kinase catalytic subunit beta isoform, sequence (P42338 whole entry, canonical isoform): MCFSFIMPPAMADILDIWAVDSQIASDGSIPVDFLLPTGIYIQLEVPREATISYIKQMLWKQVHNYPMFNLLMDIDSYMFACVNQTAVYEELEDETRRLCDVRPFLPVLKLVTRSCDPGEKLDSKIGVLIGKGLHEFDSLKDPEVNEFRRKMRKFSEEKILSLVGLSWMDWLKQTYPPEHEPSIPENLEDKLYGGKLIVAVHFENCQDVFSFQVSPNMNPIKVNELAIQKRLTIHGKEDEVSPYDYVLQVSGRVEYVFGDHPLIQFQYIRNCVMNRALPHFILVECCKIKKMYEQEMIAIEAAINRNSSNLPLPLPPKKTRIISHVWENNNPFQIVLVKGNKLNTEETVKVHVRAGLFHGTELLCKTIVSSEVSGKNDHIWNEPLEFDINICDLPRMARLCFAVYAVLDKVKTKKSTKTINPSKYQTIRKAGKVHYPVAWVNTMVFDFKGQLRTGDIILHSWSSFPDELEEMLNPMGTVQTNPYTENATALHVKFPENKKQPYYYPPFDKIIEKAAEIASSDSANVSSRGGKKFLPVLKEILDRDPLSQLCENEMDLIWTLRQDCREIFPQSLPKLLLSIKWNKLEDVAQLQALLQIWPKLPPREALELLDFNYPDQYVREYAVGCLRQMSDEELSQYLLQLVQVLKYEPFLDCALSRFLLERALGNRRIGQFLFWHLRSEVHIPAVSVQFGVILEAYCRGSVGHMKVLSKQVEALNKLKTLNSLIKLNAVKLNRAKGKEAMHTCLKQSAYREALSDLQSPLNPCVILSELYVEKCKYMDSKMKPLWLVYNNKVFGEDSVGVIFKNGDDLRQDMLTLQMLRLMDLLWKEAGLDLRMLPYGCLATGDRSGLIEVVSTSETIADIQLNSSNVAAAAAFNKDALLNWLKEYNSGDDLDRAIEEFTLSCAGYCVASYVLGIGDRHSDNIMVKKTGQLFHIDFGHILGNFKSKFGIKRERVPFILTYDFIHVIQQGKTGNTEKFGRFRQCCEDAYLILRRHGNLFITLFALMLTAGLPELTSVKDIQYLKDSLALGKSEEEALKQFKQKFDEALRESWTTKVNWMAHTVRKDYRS

[4] = target: T1, Phosphatidylinositol 4,5-bisphosphate 3-kinase catalytic subunit delta isoform (Homo sapiens, UniProt O00329); assay: Inhibition of PI3Kdelta (unknown origin) using PIP2 as substrate preincubated for 15 mins followed by substrate addition measured after 60 mins by HTRF method
T1 sequence (O00329 whole entry): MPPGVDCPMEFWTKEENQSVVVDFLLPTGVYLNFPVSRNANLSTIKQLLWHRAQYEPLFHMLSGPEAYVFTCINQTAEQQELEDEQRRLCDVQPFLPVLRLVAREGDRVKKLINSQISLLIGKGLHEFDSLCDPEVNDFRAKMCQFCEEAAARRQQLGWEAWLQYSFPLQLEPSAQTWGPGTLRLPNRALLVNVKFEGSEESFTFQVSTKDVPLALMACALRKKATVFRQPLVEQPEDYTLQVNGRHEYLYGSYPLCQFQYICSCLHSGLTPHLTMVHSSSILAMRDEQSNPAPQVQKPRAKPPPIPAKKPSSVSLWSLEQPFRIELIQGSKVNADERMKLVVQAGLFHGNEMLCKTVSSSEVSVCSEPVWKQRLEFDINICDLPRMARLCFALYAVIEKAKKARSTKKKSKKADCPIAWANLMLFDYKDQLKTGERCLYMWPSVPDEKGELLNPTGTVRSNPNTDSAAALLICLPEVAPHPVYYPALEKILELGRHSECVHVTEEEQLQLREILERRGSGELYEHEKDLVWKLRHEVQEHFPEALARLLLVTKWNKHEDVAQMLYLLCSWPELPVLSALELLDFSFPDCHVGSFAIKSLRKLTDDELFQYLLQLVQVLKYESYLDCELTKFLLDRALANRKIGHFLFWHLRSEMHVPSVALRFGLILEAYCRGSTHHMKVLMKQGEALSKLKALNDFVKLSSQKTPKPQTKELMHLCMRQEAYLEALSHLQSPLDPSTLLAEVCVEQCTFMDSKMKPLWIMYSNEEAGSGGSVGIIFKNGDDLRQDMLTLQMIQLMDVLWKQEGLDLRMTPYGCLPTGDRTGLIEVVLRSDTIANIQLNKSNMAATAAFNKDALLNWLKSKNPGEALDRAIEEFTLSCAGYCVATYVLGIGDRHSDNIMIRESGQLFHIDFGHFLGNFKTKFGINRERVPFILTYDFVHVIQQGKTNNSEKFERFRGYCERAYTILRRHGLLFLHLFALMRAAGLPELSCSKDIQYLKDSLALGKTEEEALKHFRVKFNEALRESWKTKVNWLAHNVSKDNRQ

[5] = target: Mitogen-activated protein kinase 10 (Homo sapiens, UniProt P53779); assay: Inhibition of JNK3 (unknown origin)
[6] = target: Tyrosine-protein kinase JAK3 (Homo sapiens, UniProt P52333); assay: Inhibition of JAK3 (unknown origin)
[7] = target: Tyrosine-protein kinase JAK2 (Homo sapiens, UniProt O60674); assay: Inhibition of JAK2 (unknown origin)
Tyrosine-protein kinase JAK2, sequence (O60674 whole entry): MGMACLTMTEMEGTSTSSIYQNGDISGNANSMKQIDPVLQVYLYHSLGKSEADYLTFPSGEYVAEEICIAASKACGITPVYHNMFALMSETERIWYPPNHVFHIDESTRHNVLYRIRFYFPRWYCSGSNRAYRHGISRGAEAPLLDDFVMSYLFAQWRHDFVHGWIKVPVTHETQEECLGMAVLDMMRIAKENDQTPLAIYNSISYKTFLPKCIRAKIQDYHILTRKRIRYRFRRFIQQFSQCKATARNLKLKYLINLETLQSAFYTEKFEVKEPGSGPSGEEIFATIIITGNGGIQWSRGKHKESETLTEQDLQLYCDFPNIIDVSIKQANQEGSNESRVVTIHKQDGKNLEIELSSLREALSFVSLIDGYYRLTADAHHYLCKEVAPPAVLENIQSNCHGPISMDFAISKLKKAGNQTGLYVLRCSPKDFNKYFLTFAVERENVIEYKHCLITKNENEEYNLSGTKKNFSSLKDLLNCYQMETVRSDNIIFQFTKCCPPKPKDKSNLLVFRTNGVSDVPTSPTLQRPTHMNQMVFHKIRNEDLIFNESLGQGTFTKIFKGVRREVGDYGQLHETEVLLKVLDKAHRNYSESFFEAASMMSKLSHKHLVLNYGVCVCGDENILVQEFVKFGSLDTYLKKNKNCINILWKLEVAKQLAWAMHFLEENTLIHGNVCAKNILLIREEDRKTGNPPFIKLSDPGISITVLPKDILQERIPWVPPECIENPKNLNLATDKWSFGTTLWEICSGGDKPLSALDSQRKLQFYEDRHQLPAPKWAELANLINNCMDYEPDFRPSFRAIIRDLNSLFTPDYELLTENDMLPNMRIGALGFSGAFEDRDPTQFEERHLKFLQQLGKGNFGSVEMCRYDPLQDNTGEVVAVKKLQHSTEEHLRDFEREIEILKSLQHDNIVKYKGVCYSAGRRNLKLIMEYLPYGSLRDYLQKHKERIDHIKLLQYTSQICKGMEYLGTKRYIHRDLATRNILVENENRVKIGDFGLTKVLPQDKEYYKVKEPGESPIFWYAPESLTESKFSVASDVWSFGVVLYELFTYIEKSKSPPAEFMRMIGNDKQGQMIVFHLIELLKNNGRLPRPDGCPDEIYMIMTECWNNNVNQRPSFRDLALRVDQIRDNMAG

[8] = target: Mitogen-activated protein kinase kinase kinase 5 (Homo sapiens, UniProt Q99683); assay: Inhibition of ASK1 (unknown origin)
[9] = target: Epidermal growth factor receptor (Homo sapiens, UniProt P00533); assay: Inhibition of EGFR (unknown origin)
[10] = target: Mitogen-activated protein kinase 14 (Homo sapiens, UniProt Q16539); assay: Inhibition of p38alpha (unknown origin)
[11] = target: Tyrosine-protein kinase ITK/TSK (Homo sapiens, UniProt Q08881); assay: Inhibition of ITK (unknown origin)
[12] = target: Tyrosine-protein kinase SYK (Homo sapiens, UniProt P43405); assay: Inhibition of SYK (unknown origin)
[13] = target: Leucine-rich repeat serine/threonine-protein kinase 2 (Homo sapiens, UniProt Q5S007); assay: Inhibition of LRRK2 (unknown origin)
[14] = target: Tyrosine-protein kinase Lck (Homo sapiens, UniProt P06239); assay: Inhibition of LCK (unknown origin)
[15] = target: Inhibitor of nuclear factor kappa-B kinase subunit alpha (Homo sapiens, UniProt O15111); assay: Inhibition of IKK1 (unknown origin)
[16] = target: Glycogen synthase kinase-3 beta (Homo sapiens, UniProt P49841); assay: Inhibition of GSK3B (unknown origin)
[17] = target: Tyrosine-protein kinase BTK (Homo sapiens, UniProt Q06187); assay: Inhibition of BTK (unknown origin)
[18] = target: Aurora kinase B (Homo sapiens, UniProt Q96GD4); assay: Inhibition of Aurora B (unknown origin)
[19] = target: Inhibitor of nuclear factor kappa-B kinase subunit beta (Homo sapiens, UniProt O14920); assay: Inhibition of IKK2 (unknown origin)
Inhibitor of nuclear factor kappa-B kinase subunit beta, sequence (O14920 whole entry): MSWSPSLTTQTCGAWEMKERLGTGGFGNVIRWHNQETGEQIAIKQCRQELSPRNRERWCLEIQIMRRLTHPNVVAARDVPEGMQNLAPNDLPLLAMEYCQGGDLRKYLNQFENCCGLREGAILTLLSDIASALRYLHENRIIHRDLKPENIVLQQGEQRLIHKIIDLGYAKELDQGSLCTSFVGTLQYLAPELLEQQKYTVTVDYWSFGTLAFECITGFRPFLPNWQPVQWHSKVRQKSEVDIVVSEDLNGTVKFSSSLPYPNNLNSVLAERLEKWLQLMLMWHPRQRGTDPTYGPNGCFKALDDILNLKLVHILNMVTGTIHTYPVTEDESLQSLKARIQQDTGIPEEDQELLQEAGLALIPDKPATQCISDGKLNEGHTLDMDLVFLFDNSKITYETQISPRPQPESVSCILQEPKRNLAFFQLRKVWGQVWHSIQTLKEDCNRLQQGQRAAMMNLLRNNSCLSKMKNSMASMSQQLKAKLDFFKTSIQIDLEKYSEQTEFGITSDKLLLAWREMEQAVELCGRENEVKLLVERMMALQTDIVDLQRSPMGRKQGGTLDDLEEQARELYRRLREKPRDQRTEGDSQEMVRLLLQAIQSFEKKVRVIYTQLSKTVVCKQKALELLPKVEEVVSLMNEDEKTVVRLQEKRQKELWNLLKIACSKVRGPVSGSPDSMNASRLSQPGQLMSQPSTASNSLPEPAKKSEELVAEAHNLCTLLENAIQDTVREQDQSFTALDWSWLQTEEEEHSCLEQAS

[20] = target: Rho-associated protein kinase 1 (Homo sapiens, UniProt Q13464); assay: Inhibition of ROCK1 (unknown origin)

SMILES | IC50 [1] [µM] | IC50 [2] [µM] | IC50 [3] [µM] | IC50 [4] [µM] | IC50 [5] [µM] | IC50 [6] [µM] | IC50 [7] [µM] | IC50 [8] [µM] | IC50 [9] [µM] | IC50 [10] [µM] | IC50 [11] [µM] | IC50 [12] [µM] | IC50 [13] [µM] | IC50 [14] [µM] | IC50 [15] [µM] | IC50 [16] [µM] | IC50 [17] [µM] | IC50 [18] [µM] | IC50 [19] [µM] | IC50 [20] [µM]
COc1ncc(-c2cc(-c3ncc(CN4C[C@@H](C)O[C@@H](C)C4)o3)c3cn[nH]c3c2)cc1NS(C)(=O)=O | 0.316 | 0.398 | 2.51 | – | – | – | – | – | – | – | – | – | – | – | – | – | – | – | – | –
O=S(=O)(Nc1cc(-c2ccccc2)cnc1Cl)c1ccccc1 | 12.6 | 31.6 | 15.8 | 1 | – | – | – | – | – | – | – | – | – | – | – | – | – | – | – | –
CS(=O)(=O)Nc1cc(-c2ccncc2)cnc1Cl | 3.98 | 6.31 | 0.794 | 0.251 | > 10 | > 10 | > 10 | > 10 | > 10 | > 10 | > 10 | > 10 | > 10 | > 10 | > 10 | > 10 | > 10 | > 10 | > 10 | > 10
